Data on 38 molecules can be found in patent US8940739B2, “Compound of a reverse-turn mimetic and a production method and use therefor” (JW Pharmaceutical Corporation, priority 2010, dated 2015).

As usually defined, the GI50 is the concentration that inhibits growth by half. Low values mean more potent growth inhibition, high ones less potent growth inhibition.

In this experiment the test system is MV-4-11 (human, Acute Myeloid Leukemia cell line) cells. Briefly: Cell growth inhibition assay, GI50 of MV-4-11. Conditions: Homo sapiens, MV4-11, 72 h, MV-4-11 cells. The format is cell-based. The procedure: The anti-proliferative activity (cell growth inhibition assay) of the compounds according to the present invention against AML (Acute Myeloid Leukemia) cancer cells was measured. […] The lower the GI50 value, the higher the anti-proliferative activity.
A cell growth Inhibition assay was performed to investigate the rate of inhibition of cell proliferation by the compounds of the present invention. MV-4-11 (human, Acute Myeloid Leukemia cell line) cells were cultured in Iscove's modified Dulbecco's medium (IMDM) including 10% fetal bovine serum (FBS), 1× penicillin/streptomycin (10,000 units/ml Penicillin, […] Streptomycin in 0.85% NaCl). MV-4-11 cells were harvested with the IMDM and 5×10^4 cells/well were transferred to each well of 96-well culture plates (Nunc, #167008).
The compounds of Examples 1 to 5 were exposed to serial dilution and duplicated for each concentration. For the serial dilution, the compounds of the present invention were repeatedly diluted with the same volume of media onto 96-well assay block (costar, #3956). After the dilution, each compound was added to each well.
Also, the background absorbance was measured during the treatment with the test compounds by replacing the test compound with IMDM in the negative control plate. The plates were incubated for three days (72 hours) at 37 in the humidified incubator containing 5% CO2. On the last day, 20 µl of a CellTiter 96 Aqueous One Solution (Promega #G3581) was added to the culture in each well and the plates were incubated for a few hours at 37 in the humidified incubator containing 5% CO2. After the incubation, the absorbance of each cell was measured at 490 nm using an EnVision (Perkinelmer, USA).
The GI50 values were calculated using a Prism 3.0 program.

The molecule `C=CCN1CC(=O)N2[C@@H](Cc3ccc(O)cc3)C(=O)N(Cc3cccc4c(C(=O)N5CCN(Cc6ccc(C#N)cc6)CC5)cn(C)c34)C[C@@H]2N1C(=O)NCc1ccccc1` [Compound E-33] showed a GI50 of 9 nM.
Molecule `C=CCN1CC(=O)N2[C@@H](Cc3ccc(O)cc3)C(=O)N(Cc3cccc4c(C(=O)N5CCN(Cc6cccc(OC)c6)CC5)cn(C)c34)C[C@@H]2N1C(=O)NCc1ccccc1` [Compound E-35] gave a GI50 of 5.1 nM. This GI50 lies about 1.8-fold lower than the previous one.
In turn, `C=CCN1CC(=O)N2[C@@H](Cc3ccc(O)cc3)C(=O)N(Cc3cccc4c(C(=O)N5CCN(Cc6ccc(OC)cc6)CC5)cn(C)c34)C[C@@H]2N1C(=O)NCc1ccccc1` [Compound E-36] returned a GI50 of 8.4 nM.
Then `C=CCN1CC(=O)N2[C@@H](Cc3ccc(O)cc3)C(=O)N(Cc3cccc4c(C(=O)N5CCN(c6ccccc6)CC5)cn(C)c34)C[C@@H]2N1C(=O)NCc1ccccc1` [Compound E-37], with 16.4 nM; and `C=CCN1CC(=O)N2[C@@H](Cc3ccc(O)cc3)C(=O)N(Cc3cccc4c(C(=O)N5CCN(c6ccc(O)cc6)CC5)cn(C)c34)C[C@@H]2N1C(=O)NCc1ccccc1` [Compound E-40], with 15.4 nM; and `C=CCN1CC(=O)N2[C@@H](Cc3ccc(O)cc3)C(=O)N(Cc3cccc4c(C(=O)N5CCN6CCN(CC7CCCCC7)CC6C5)cn(C)c34)C[C@@H]2N1C(=O)NCc1ccccc1` (some centres unmarked) [Compound E-46], with 2 nM.
Molecule `C=CCN1CC(=O)N2[C@@H](Cc3ccc(O)cc3)C(=O)N(Cc3cccc4c(C(=O)N5CCN6CCN(CC7CCC7)CC6C5)cn(C)c34)C[C@@H]2N1C(=O)NCc1ccccc1` (some centres unmarked) [Compound E-49] returned a GI50 of 6.9 nM.
The value for `C=CCN1CC(=O)N2[C@@H](Cc3ccc(O)cc3)C(=O)N(Cc3cccc4c(C(=O)N5CCC(NC(=O)OC(C)(C)C)CC5)cn(C)c34)C[C@@H]2N1C(=O)NCc1ccccc1` [Compound E-56] was 3.1 nM.
Then `C=CCN1CC(=O)N2[C@@H](Cc3ccc(O)cc3)C(=O)N(Cc3cccc4c(C(=O)N(C)CC(C)(C)CO)cn(C)c34)C[C@@H]2N1C(=O)NCc1ccccc1` [Compound F-8], with 2 nM.
Then `C=CCN1CC(=O)N2[C@@H](Cc3ccc(O)cc3)C(=O)N(Cc3cccc4c(C(=O)N(C)CCNC5CC5)cn(C)c34)C[C@@H]2N1C(=O)NCc1ccccc1` [Compound F-11], with 10.4 nM; and `C=CCN1CC(=O)N2[C@@H](Cc3ccc(O)cc3)C(=O)N(Cc3cccc4c(C(=O)N(C)CCCNC(C)C)cn(C)c34)C[C@@H]2N1C(=O)NCc1ccccc1` [Compound F-19], with 1.5 nM; and `C=CCN1CC(=O)N2[C@@H](Cc3ccc(O)cc3)C(=O)N(Cc3cccc4c(C(=O)N(C)CCCN5CCN(C)CC5)cn(C)c34)C[C@@H]2N1C(=O)NCc1ccccc1` [Compound F-31], with 1.9 nM.
Take `C=CCN1CC(=O)N2[C@@H](Cc3ccc(O)cc3)C(=O)N(Cc3cccc4c(C(=O)N(C)CCCc5c(C)nn(C)c5C)cn(C)c34)C[C@@H]2N1C(=O)NCc1ccccc1` [Compound F-38]: growth was halved (GI50) at 6.1 nM.
On to `C=CCN1CC(=O)N2[C@@H](Cc3ccc(O)cc3)C(=O)N(Cc3cccc4c(C(=O)N(C)Cc5ccncc5)cn(C)c34)C[C@@H]2N1C(=O)NCc1ccccc1` [Compound F-40], for which the GI50 was 17.2 nM.
For `C=CCN1CC(=O)N2[C@@H](Cc3ccc(O)cc3)C(=O)N(Cc3cccc4c(C(=O)N(C)Cc5cccnc5)cn(C)c34)C[C@@H]2N1C(=O)NCc1ccccc1` [Compound F-41], the GI50 stood at 11.6 nM.
Then `C=CCN1CC(=O)N2[C@@H](Cc3ccc(O)cc3)C(=O)N(Cc3cccc4c(C(=O)NCc5ccccn5)cn(C)c34)C[C@@H]2N1C(=O)NCc1ccccc1` [Compound F-42], with 9.1 nM; and `C=CCN1CC(=O)N2[C@@H](Cc3ccc(O)cc3)C(=O)N(Cc3cccc4c(C(=O)N(C)Cc5ccccn5)cn(C)c34)C[C@@H]2N1C(=O)NCc1ccccc1` [Compound F-43], with 17.8 nM; and `C=CCN1CC(=O)N2[C@@H](Cc3ccc(O)cc3)C(=O)N(Cc3cccc4c(C(=O)NCc5cccc(C)n5)cn(C)c34)C[C@@H]2N1C(=O)NCc1ccccc1` [Compound F-44], with 4.5 nM.
The value for `C=CCN1CC(=O)N2[C@@H](Cc3ccc(O)cc3)C(=O)N(Cc3cccc4c(C(=O)N(C)Cc5cccc(C)n5)cn(C)c34)C[C@@H]2N1C(=O)NCc1ccccc1` [Compound F-45] was 1.7 nM; that for `C=CCN1CC(=O)N2[C@@H](Cc3ccc(O)cc3)C(=O)N(Cc3cccc4c(C(=O)N(C)Cc5ccc(N(C)C)cc5)cn(C)c34)C[C@@H]2N1C(=O)NCc1ccccc1` [Compound F-46] was 1.3 nM; that for `C=CCN1CC(=O)N2[C@@H](Cc3ccc(O)cc3)C(=O)N(Cc3cccc4c(C(=O)NCc5cccc(N6CCCC6)n5)cn(C)c34)C[C@@H]2N1C(=O)NCc1ccccc1` [Compound F-49] was 11.4 nM.
The value for `C=CCN1CC(=O)N2[C@@H](Cc3ccc(O)cc3)C(=O)N(Cc3cccc4c(C(=O)NCc5cccc(N6CCOCC6)n5)cn(C)c34)C[C@@H]2N1C(=O)NCc1ccccc1` [Compound F-50] was 1.6 nM.
`C=CCN1CC(=O)N2[C@@H](Cc3ccc(O)cc3)C(=O)N(Cc3cccc4c(C(=O)NCCc5cccnc5)cn(C)c34)C[C@@H]2N1C(=O)NCc1ccccc1` [Compound F-52] showed a GI50 of 4.6 nM.
In turn, `C=CCN1CC(=O)N2C(CN(Cc3cccc4c(C(=O)Nc5ccc(O)cc5)cn(C)c34)C(=O)[C@@H]2Cc2ccc(O)cc2)N1C(=O)NCc1ccccc1` (some centres unmarked) [Compound G-2] showed a GI50 of 8 nM.
`C=CCN1CC(=O)N2C(CN(Cc3cccc4c(C(=O)Nc5ccc(SC)cc5)cn(C)c34)C(=O)[C@@H]2Cc2ccc(O)cc2)N1C(=O)NCc1ccccc1` (some centres unmarked) [Compound G-7] came in with a GI50 of 10.5 nM. The GI50 values of the last two molecules are within 1.5-fold of each other.
The value for `C=CCN1CC(=O)N2C(CN(Cc3cccc4c(C(=O)Nc5ccc(N)cc5)cn(C)c34)C(=O)[C@@H]2Cc2ccc(O)cc2)N1C(=O)NCc1ccccc1` (some centres unmarked) [Compound G-8] was 7.4 nM.
Then `C=CCN1CC(=O)N2C(CN(Cc3cccc4c(C(=O)Nc5ccc(N)nc5)cn(C)c34)C(=O)[C@@H]2Cc2ccc(O)cc2)N1C(=O)NCc1ccccc1` (some centres unmarked) [Compound G-9], with 19.9 nM; and `C=CCN1CC(=O)N2C(CN(Cc3cccc4c(C(=O)Nc5ccc(N(C)C)cc5)cn(C)c34)C(=O)[C@@H]2Cc2ccc(O)cc2)N1C(=O)NCc1ccccc1` (some centres unmarked) [Compound G-14], with 1.2 nM; and `C=CCN1CC(=O)N2C(Cc3ccc(O)cc3)C(=O)N(Cc3cccc4c(C(=O)Nc5ccc(NCC)nc5)cn(C)c34)CC2N1C(=O)NCc1ccccc1` (centres unmarked) [Compound G-16], with 1.7 nM.
For `C=CCN1CC(=O)N2C(Cc3ccc(O)cc3)C(=O)N(Cc3cccc4c(C(=O)Nc5ccc(N(C)CC(C)C)nc5)cn(C)c34)CC2N1C(=O)NCc1ccccc1` (centres unmarked) [Compound G-17], it took 2 nM to inhibit growth by half (GI50). This GI50 and that of the molecule before are within 1.5-fold of each other.
Regarding `C=CCN1CC(=O)N2C(CN(Cc3cccc4c(C(=O)Nc5ccc(NCCCO)nc5)cn(C)c34)C(=O)[C@@H]2Cc2ccc(O)cc2)N1C(=O)NCc1ccccc1` (some centres unmarked) [Compound G-19], the GI50 came out at 9.3 nM.
The molecule `C=CCN1CC(=O)N2C(CN(Cc3cccc4c(C(=O)Nc5ccc(N(C)CCCO)nc5)cn(C)c34)C(=O)[C@@H]2Cc2ccc(O)cc2)N1C(=O)NCc1ccccc1` (some centres unmarked) [Compound G-20] showed a GI50 of 1.7 nM.
Then `C=CCN1CC(=O)N2C(Cc3ccc(O)cc3)C(=O)N(Cc3cccc4c(C(=O)Nc5ccc(NCCN6CCN(C)CC6)nc5)cn(C)c34)CC2N1C(=O)NCc1ccccc1` (centres unmarked) [Compound G-30], with 5 nM.
Molecule `C=CCN1CC(=O)N2[C@@H](Cc3ccc(O)cc3)C(=O)N(Cc3cccc4c(C(=O)Nc5ccc(N(C)Cc6cncn6C)nc5)cn(C)c34)C[C@@H]2N1C(=O)NCc1ccccc1` [Compound G-34] showed a GI50 of 1.37 nM.
Then `C=CCN1CC(=O)N2C(CN(Cc3cccc4c(C(=O)Nc5ccc(N6CCN(C)CC6)cc5)cn(C)c34)C(=O)[C@@H]2Cc2ccc(O)cc2)N1C(=O)NCc1ccccc1` (some centres unmarked) [Compound G-40], with 1.3 nM.
Turning to `C=CCN1CC(=O)N2[C@@H](Cc3ccc(O)cc3)C(=O)N(Cc3cccc4c(C(=O)Nc5ccc(N6CCC(N(C)C)CC6)nc5)cn(C)c34)C[C@@H]2N1C(=O)NCc1ccccc1` [Compound G-45], the GI50 was 1.2 nM.
The value for `C=CCN1CC(=O)N2C(CN(Cc3cccc4c(C(=O)Nc5ccc(N6CCC(N7CCOCC7)CC6)nc5)cn(C)c34)C(=O)[C@@H]2Cc2ccc(O)cc2)N1C(=O)NCc1ccccc1` (some centres unmarked) [Compound G-56] was 1.3 nM; that for `C=CCN1CC(=O)N2[C@@H](Cc3ccc(O)cc3)C(=O)N(Cc3cccc4c(-c5ccc(C(C)=O)s5)cn(C)c34)C[C@@H]2N1C(=O)NCc1ccccc1` [Compound H-8] was 5.7 nM.
